Assay results taken from patent publication US20240270810A1, “PREPARATION AND APPLICATION OF POLYPEPTIDE” (GUANGDONG RAYNOVENT BIOTECH CO., LTD., priority 2021, published 2024).

What was measured:
[1] = in vitro; assay type: in vitro ADME; conditions: mouse, plasma
Method: (§1) To study the stability of the test compounds in the plasma of normal mice. • 1. Before the experiment, the clotted frozen plasma was thawed in a water bath at 37° C. The resulting plasma was centrifuged at 4000 rpm for 5 min. If there is blood clot, remove the clot and adjust the pH to 7.4±0.1. • 2. The test compound solution was prepared by diluting the compounds with DMSO to prepare a solution of 100 μM. • 3. 98 μL of plasma, as a blank control, was added with 2 μL of the test compound solution (100 μM) to get a mixed solution with a final concentration of 2 μM, which was incubated in a water bath at 37° C. • 4. 100 μL of H3PO4 solution and 800 μL of stop solution (a 100% solution of 200 ng/mL tolbutamide and 200 ng/ml labetalol in methanol) were respectively added at each time point (0, 10, 30, 60, and 120 min) to precipitate protein, which was then mixed thoroughly. • 5. The samples were centrifuged at 4000 rpm for 20 min, and 100 μL of supernatant was taken from each well for LC-MS/MS analysis.

[2] = in vitro; assay type: in vitro ADME; conditions: human, plasma
Method: as §1, with “•” for “To study the stability of the test compounds in the plasma of normal mice. •”

[3] = in vivo; design: species or system C57BL/6 mice; conditions: sc, 0.048 mg/kg
Method: The pharmacokinetic characteristics in rodent animals following subcutaneous injection of the compounds were tested using standard protocols. In the experiment, the candidate compounds were formulated into clear solution, which was administered by subcutaneous injection (SC, 0.048 mpk). The vehicle for subcutaneous injection was citrate buffer solution (20 mM, pH=7). The whole blood was collected and processed to get the plasma. The drug concentration was analyzed by LC-MS/MS, and the pharmacokinetic parameters were calculated using Phoenix WinNonlin software.

[4] = biological target: T1, GIPR (Homo sapiens, UniProt P48546); assay: In vitro GIPR agonistic activity test (cAMP kit); assay type: cell-based; conditions: CHO host cells
T1 construct: host or cells: CHO
T1 sequence (P48546 22-466): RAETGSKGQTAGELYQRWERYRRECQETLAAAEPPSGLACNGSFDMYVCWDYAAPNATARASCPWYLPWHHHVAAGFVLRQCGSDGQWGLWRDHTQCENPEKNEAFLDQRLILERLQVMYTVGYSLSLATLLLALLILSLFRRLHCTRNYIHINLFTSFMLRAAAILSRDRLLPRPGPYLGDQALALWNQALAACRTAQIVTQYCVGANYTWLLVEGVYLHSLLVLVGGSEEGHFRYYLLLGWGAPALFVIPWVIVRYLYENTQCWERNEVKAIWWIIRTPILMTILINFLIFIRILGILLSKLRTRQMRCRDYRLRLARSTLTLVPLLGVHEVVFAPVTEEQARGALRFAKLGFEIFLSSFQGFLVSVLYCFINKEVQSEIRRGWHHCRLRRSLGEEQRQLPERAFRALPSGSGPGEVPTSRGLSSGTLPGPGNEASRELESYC
Method: The cell lines were constructed by Wuxi […] (Shanghai) Co., Ltd. See details in Table 1 below. […] The test compounds were diluted at a 4-fold dilution factor in 10 points, starting from an initial concentration of 30 μM. The dilution was carried out by Bravo. • 1) 100 nL of compounds were transferred to an OptiPlate-384 plate by Echo. • 2) The OptiPlate-384 plate was centrifuged at 1000 rpm for 5 s. • 1) A GLP-1R/GIPR cell cryovial was placed in warm water at 37° C. for rapid thawing. • 2) The cell suspension was transferred into a 15 mL Transfer centrifugal tube and rinsed with 10 mL of HBSS gently. • 3) The centrifugal tube was centrifuged at 1000 rpm at room temperature for 1 min. • 4) The supernatant was discarded. • 5) The bottom cells were gently dispersed, then gently rinsed with 10 mL of HBSS, the centrifugal tube was centrifuged to settle the cells, and finally the cells were resuspended in an experimental buffer. • 6) Cell density and viability were measured by Vi-cell. • 7) The GLP-1R/GIPR cells were diluted with the experimental buffer to a concentration of 2.0*10^5/mL. • 8) […] of the diluted cell suspension was transferred into the OptiPlate-384 plate. • 9) Incubation was performed at room temperature for 30 min. • 1) 10 μL of 800 nM gradient diluted cAMP standard was added into the empty wells of the OptiPlate-384 plate. • 2) 10 μL of cAMP assay reagent was added. • 3) The OptiPlate-384 plate was covered with TopSeal-A film and incubated at room temperature for 60 min. The TopSeal-A film was removed, and readout was performed on En Vision.

Row | half-life [1] [h] | half-life [2] [h] | Cmax ([3]; C57BL/6, mouse) [nM] | AUC(0-t) ([3]; mouse) [µM·h] | Tmax ([3]; mouse) [h] | half-life ([3]; mouse) [h] | EC50 ([4]; with 1% HSA) [nM] | EC50 ([4]; without 1% HSA) [nM] | half-life at 2 μM ([1]; pH 7.4) [h] | half-life at 2 μM ([2]; pH 7.4) [h] | Tmax ([3]; C57BL/6, mouse) [h] | Structure (SMILES)
1 | > 4.82 | > 4.82 | 79 | 2.24 | 12 | 16 | 19.3 | 0.16 | – | – | – | CC[C@H](C)[C@H](NC(=O)[C@H](CC(C)C)NC(=O)[C@H](Cc1c[nH]c2ccccc12)NC(=O)[C@H](CCC(=O)O)NC(=O)[C@@H](NC(=O)[C@H](Cc1ccccc1)NC(=O)[C@H](C)NC(=O)[C@@H]1CCCCNC(=O)CN(C(=O)COCCOCCNC(=O)COCCOCCNC(=O)CC[C@H](NC(=O)CCCCCCCCCCCCCCCCCCC(=O)O)C(=O)O)CC(=O)NCCCC[C@H](NC(=O)[C@H](CCCCN)NC(=O)[C@H](CC(=O)O)NC(=O)[C@H](CC(C)C)NC(=O)C(C)(C)NC(=O)[C@@H](NC(=O)[C@H](CO)NC(=O)[C@H](Cc2ccc(O)cc2)NC(=O)[C@H](CC(=O)O)NC(=O)[C@H](CO)NC(=O)[C@@H](NC(=O)[C@H](Cc2ccccc2)NC(=O)[C@@H](NC(=O)CNC(=O)[C@H](CCC(=O)O)NC(=O)C(C)(C)NC(=O)[C@@H](N)Cc2ccc(O)cc2)[C@@H](C)O)[C@@H](C)O)[C@@H](C)CC)C(=O)N[C@@H](C)C(=O)N[C@@H](CCC(N)=O)C(=O)N1)C(C)C)C(=O)N[C@@H](C)C(=O)NCC(=O)NCC(=O)N1CCC[C@H]1C(=O)N[C@@H](CO)C(=O)N[C@@H](CO)C(=O)NCC(=O)N[C@@H](C)C(=O)N1CCC[C@H]1C(=O)N1CCC[C@H]1C(=O)N1CCC[C@H]1C(=O)N[C@@H](CO)C(N)=O [WX-005]
2 | – | – | 59 | – | – | – | – | 0.074 | > 3.98 | > 4.82 | 12 | CC[C@H](C)[C@H](NC(=O)[C@H](CC(C)C)NC(=O)[C@H](Cc1c[nH]c2ccccc12)NC(=O)[C@H](CCC(=O)O)NC(=O)[C@@H](NC(=O)[C@H](Cc1ccccc1)NC(=O)[C@H](CCC(=O)O)NC(=O)[C@@H]1CCCCNC(=O)CN(C(=O)COCCOCCNC(=O)COCCOCCNC(=O)CC[C@H](NC(=O)CCCCCCCCCCCCCCCCCCC(=O)O)C(=O)O)CC(=O)NCCCC[C@H](NC(=O)[C@H](CCCCN)NC(=O)[C@H](CC(=O)O)NC(=O)[C@H](CC(C)C)NC(=O)C(C)(C)NC(=O)[C@@H](NC(=O)[C@H](CO)NC(=O)[C@H](Cc2ccc(O)cc2)NC(=O)[C@H](CC(=O)O)NC(=O)[C@H](CO)NC(=O)[C@@H](NC(=O)[C@H](Cc2ccccc2)NC(=O)[C@@H](NC(=O)CNC(=O)[C@H](CCC(=O)O)NC(=O)C(C)(C)NC(=O)[C@@H](N)Cc2ccc(O)cc2)[C@@H](C)O)[C@@H](C)O)[C@@H](C)CC)C(=O)N[C@@H](C)C(=O)N[C@@H](CCC(N)=O)C(=O)N1)C(C)C)C(=O)N[C@@H](C)C(=O)NCC(=O)NCC(=O)N1CCC[C@H]1C(=O)N[C@@H](CO)C(=O)N[C@@H](CO)C(=O)NCC(=O)N[C@@H](C)C(=O)N1CCC[C@H]1C(=O)N1CCC[C@H]1C(=O)N1CCC[C@H]1C(=O)N[C@@H](CO)C(N)=O [WX-009]
